Calls of active or inactive are those of the source. The rule behind the calls is not given here.
Key:
[1] = biological target: T1, Glutamate NMDA receptor (Mus musculus) (UniProt P35436+Q91ZU9+Q03391+P35438+Q01097+Q01098+A2AIR5); experiment: Positive allosteric modulation of C57BL/6 mouse NMDA receptor assessed as fold change in compound potentiated NMDA-induced current relative to NMDA current alone at 30 uM measured after 15 to 30 mins by patch-clamp method; type: tissue-based; conditions: Brain, filed as positive allosteric modulator, time 15-30 min
[2] = Brain to blood partition coefficient of the compound; type: physicochemical, tissue-based; conditions: read-out: logBB (converted)
Mus musculus [3] = experiment: Antidepressant activity in ICR mouse assessed as decrease in immobility time at 30 mg/kg, ip measured after 26 mins by forced swim test; type: functional, organism-based
hERG (KCNH2) [4] = biological target: T2, hERG (KCNH2) (Homo sapiens, UniProt Q12809); experiment: Inhibition of human ERG expressed in CHO cells at 30 uM with holding potential at -80 to -60 mV for 500s followed by raise in potential at +30 mV for 2 sec and subsequent repolarization to -60 mV for 2 sec by whole-cell patch clamp method relative to control; type: cell-based; conditions: CHO cells expressing human ERG
T2 sequence (Q12809 whole entry): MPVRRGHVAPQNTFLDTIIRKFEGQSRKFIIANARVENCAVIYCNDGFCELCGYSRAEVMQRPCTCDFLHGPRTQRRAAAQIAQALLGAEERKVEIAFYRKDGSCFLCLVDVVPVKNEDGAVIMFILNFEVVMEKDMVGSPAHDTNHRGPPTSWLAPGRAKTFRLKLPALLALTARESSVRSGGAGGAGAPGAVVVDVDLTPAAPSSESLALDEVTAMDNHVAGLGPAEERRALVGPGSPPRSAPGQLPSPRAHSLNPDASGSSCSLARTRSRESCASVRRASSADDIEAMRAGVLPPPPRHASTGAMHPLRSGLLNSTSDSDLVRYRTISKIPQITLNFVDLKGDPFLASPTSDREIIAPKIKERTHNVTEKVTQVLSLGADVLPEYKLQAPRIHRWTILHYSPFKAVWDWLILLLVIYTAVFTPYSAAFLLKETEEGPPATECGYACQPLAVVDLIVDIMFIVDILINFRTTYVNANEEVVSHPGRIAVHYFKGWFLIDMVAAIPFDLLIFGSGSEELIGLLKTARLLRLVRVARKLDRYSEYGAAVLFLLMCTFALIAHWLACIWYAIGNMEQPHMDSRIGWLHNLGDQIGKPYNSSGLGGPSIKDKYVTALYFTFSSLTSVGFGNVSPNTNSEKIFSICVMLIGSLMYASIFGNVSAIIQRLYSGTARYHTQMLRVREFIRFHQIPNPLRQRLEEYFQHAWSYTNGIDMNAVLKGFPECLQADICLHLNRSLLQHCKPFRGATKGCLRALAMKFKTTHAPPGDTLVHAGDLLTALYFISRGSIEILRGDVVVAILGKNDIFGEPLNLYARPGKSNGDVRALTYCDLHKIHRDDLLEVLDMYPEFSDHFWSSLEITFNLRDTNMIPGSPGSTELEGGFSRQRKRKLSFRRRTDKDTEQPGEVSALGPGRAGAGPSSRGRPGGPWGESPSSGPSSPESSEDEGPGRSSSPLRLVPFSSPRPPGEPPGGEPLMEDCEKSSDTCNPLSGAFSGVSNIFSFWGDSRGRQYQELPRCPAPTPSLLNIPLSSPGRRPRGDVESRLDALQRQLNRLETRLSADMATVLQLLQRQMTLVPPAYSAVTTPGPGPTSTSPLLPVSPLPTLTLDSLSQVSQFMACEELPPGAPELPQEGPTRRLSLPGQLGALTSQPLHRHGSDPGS

[5] = Cytotoxicity against African green monkey Vero cells assessed as cell growth inhibition at 120 uM measured after 48 hrs by CCK8 assay relative to control; type: cell-based; conditions: chlorocebus sabaeus
[6] = Cytotoxicity against human HEK293 cells assessed as cell growth inhibition at 120 uM measured after 48 hrs by CCK8 assay relative to control; type: cell-based
[7] = biological target: T1, Glutamate NMDA receptor (Mus musculus); experiment: Positive allosteric modulation of C57BL/6 mouse NMDA receptor assessed as fold change in compound potentiated NMDA-induced current relative to NMDA current alone in presence of saturating glutamate by patch-clamp method; type: tissue-based; conditions: Brain, filed as positive allosteric modulator
[8] = Cytotoxicity against human HEK293 cells assessed as cell growth inhibition at 60 uM measured after 48 hrs by CCK8 assay relative to control; type: cell-based
[9] = Cytotoxicity against mouse L929 cells assessed as cell growth inhibition at 120 uM measured after 48 hrs by CCK8 assay relative to control; type: cell-based
hERG (KCNH2) [10] = biological target: T2, hERG (KCNH2); experiment: Inhibition of human ERG expressed in CHO cells at 100 uM with holding potential at -80 to -60 mV for 500s followed by raise in potential at +30 mV for 2 sec and subsequent repolarization to -60 mV for 2 sec by whole-cell patch clamp method relative to control; type: cell-based; conditions: CHO cells expressing human ERG
[11] = Effect on locomotor activity in ICR mouse assessed as hypolocomotion at 10 mg/kg, ip measured after 90 mins; type: ADME, organism-based; conditions: in vivo, 1.5 h
Glutamate NMDA receptor = experiment: Positive allosteric modulation of C57BL/6 mouse NMDA receptor assessed as potentiation of NMDA-induced current in presence of saturating glutamate by patch-clamp method; type: tissue-based, Brain
[12] = Cytotoxicity against African green monkey Vero cells assessed as cell growth inhibition at 60 uM measured after 48 hrs by CCK8 assay relative to control; type: cell-based; conditions: chlorocebus sabaeus
[13] = Cytotoxicity against mouse L929 cells assessed as cell growth inhibition at 60 uM measured after 48 hrs by CCK8 assay relative to control; type: cell-based
[14] = Effect on locomotor activity in ICR mouse assessed as hyperlocomotion at 10 mg/kg, ip measured after 90 mins; type: ADME, organism-based; conditions: in vivo, 1.5 h
Mus musculus [15] = experiment: Antidepressant activity in ICR mouse assessed as decrease in immobility time at 3 to 10 mg/kg, ip measured after 26 mins by forced swim test; type: functional, organism-based; conditions: dose 3-10 mg/kg
Mus musculus [16] = experiment: Antidepressant activity in ICR mouse aassessed as inhibition of apomorphine-induced climbing behaviour at 10 mg/kg, ip administered prior to APO challenge and measured after 30 mins; type: functional, organism-based

SMILES	fold change (FC) [1]	Kp [2]	other results
Cc1cc(C)n(Cc2ccc(C(=O)Nc3ccc(Br)cc3Cl)o2)n1	1.7	1	
Cc1cc(C(F)(F)F)n(Cc2ccc(C(=O)Nc3ccc(Br)cc3C)o2)n1	1.2	1.58	
COC(=O)c1cc(F)ccc1NC(=O)c1ccc(Cn2nc(C(F)(F)F)cc2C(F)(F)F)o1	1.9	0.794	
Cc1cc(C)n(Cc2ccc(C(=O)Nc3ccc4cccnc4c3)s2)n1	1.1	0.316	
Cc1cc(C)n(Cc2ccc(C(=O)Nc3ccc(Cl)cc3C)s2)n1	-0.2	1.26	
Cc1cc(C)n(Cc2ccc(C(=O)Nc3ccc(F)cc3Cl)o2)n1	0.9	0.794	
Cc1cc(C)n(Cc2ccc(C(=O)Nc3ccc(-c4ccccc4)cc3)o2)n1	6.7	0.398	
COc1cc(NC(=O)c2ccc(Cn3nc(C)cc3C)s2)cc(OC)c1	0.4	0.398	
Cc1cc(C)n(Cc2ccc(C(=O)Nc3ccc(Cl)cc3C(=O)NCc3ccccc3)o2)n1	2.9	0.166	
Cc1cc(C)n(Cc2ccc(C(=O)Nc3ccc(-c4cccnc4)cc3)s2)n1	14.3	0.398	Activity (Mus musculus [3]): Active; inhibition at 2 s, 30 µM (hERG (KCNH2) [4]): 44.2%; inhibition at 48 h, 120 µM [5]: -7.5%; inhibition at 48 h, 120 µM [6]: 18%; fold change (FC) [7]: 12.8; inhibition at 48 h, 60 µM [8]: 6.5%; inhibition at 48 h, 120 µM [9]: 28.6%; inhibition at 2 s, 100 µM (hERG (KCNH2) [10]): 53.4%; Activity [11]: Non-Toxic; EC50 (Glutamate NMDA receptor): 3.6 µM; inhibition at 48 h, 60 µM [12]: -3.8%; inhibition at 48 h, 60 µM [13]: 27.5%; Activity [14]: Non-Toxic; Activity (Mus musculus [15]): inactive; Activity (Mus musculus [16]): inactive
Cc1cc(C)n(Cc2ccc(C(=O)Nc3ccc4ccccc4c3)s2)n1	1.8	0.631	
Cc1cc(C)n(Cc2ccc(C(=O)Nc3ccc(-c4ccccc4)cc3)s2)n1	2.8	0.398	
CCCCNC(=O)c1cc(Cl)ccc1NC(=O)c1ccc(Cn2nc(C)cc2C)o1	-0.6	0.257	
CNc1ccccc1NC(=O)c1ccc(Cn2nc(C)cc2C)o1	0.8	0.316	
Cc1cc(Br)ccc1NC(=O)c1ccco1	-0.2	1.41	
Cc1cc(C)n(Cc2ccc(C(=O)Nc3ccc(-c4ccccc4)cc3C)s2)n1	2.8	0.501	
COC(=O)c1cc(F)ccc1NC(=O)c1ccc(Cn2nc(C)cc2C)o1	1.5	0.158	
Cc1cc(C)n(Cc2ccc(C(=O)Nc3ccc4[nH]c(=O)[nH]c4c3)s2)n1	0.3	0.0251	
Cc1cc(C)n(Cc2ccc(C(=O)Nc3ccc(-c4cccnc4)cc3C)s2)n1	1.8	0.251	

SMILES	fold change (FC) [1]	Kp [2]	other results
Cc1cc(C)n(Cc2ccc(C(=O)Nc3ccc4ccccc4c3)o2)n1	3.2	0.398	
Cc1cc(C(F)(F)F)n(Cc2ccc(C(=O)Nc3ccc(Cl)cc3C)o2)n1	7.7	1.58	
Cc1cc(C)n(Cc2ccc(C(=O)Nc3ccc4cc[nH]c4c3)s2)n1	8.9	0.316	Activity (Mus musculus [3]): inactive; inhibition at 2 s, 30 µM (hERG (KCNH2) [4]): 33.6%; inhibition at 48 h, 120 µM [5]: -0.4%; inhibition at 48 h, 120 µM [6]: 2.5%; fold change (FC) [7]: 10.5; inhibition at 48 h, 60 µM [8]: -7.4%; inhibition at 48 h, 120 µM [9]: 25.5%; inhibition at 2 s, 100 µM (hERG (KCNH2) [10]): 46.7%; Activity [11]: Non-Toxic; EC50 (Glutamate NMDA receptor): 9 µM; inhibition at 48 h, 60 µM [12]: -3.2%; inhibition at 48 h, 60 µM [13]: 2.8%; Activity [14]: Non-Toxic; Activity (Mus musculus [16]): inactive
Cc1cc(Br)ccc1NC(=O)c1ccc(Cl)o1	1.2	2.09	
Cc1cc(C)n(Cc2ccc(C(=O)Nc3ccc(Cl)cc3C(=O)NCCCO)o2)n1	2.9	0.0331	
Cc1cc(C)n(Cc2ccc(C(=O)Nc3ccc(Br)cc3C)s2)n1	1.5	1.26	
Cc1cc(C)n(Cc2ccc(C(=O)Nc3ccc(Cl)cc3C(=O)Nc3ccccc3)o2)n1	1.2	0.195	
COC(=O)c1cc(Br)ccc1NC(=O)c1ccc(Cn2nc(C)cc2C)o1	2.7	0.251	
Cc1ccc(C(=O)Nc2ccc(Br)cc2C)o1	-0.3	1.32	
Cc1cc(C)n(Cc2ccc(C(=O)Nc3cc(Cl)cc(Cl)c3)s2)n1	1.2	1.26	
Cc1cc(C)n(Cc2ccc(C(=O)Nc3ccc(Br)cc3)o2)n1	1.2	0.646	
CCOc1ccc(NC(=O)c2ccc(Cn3nc(C)cc3C)s2)cc1OCC	2.7	0.251	
Cc1cc(C)n(Cc2ccc(C(=O)Nc3ccc(Cl)cc3CO)o2)n1	1.1	0.398	
Cc1cc(C)n(Cc2ccc(C(=O)Nc3ccc(Cl)c(F)c3)s2)n1	6	1.26	
Cc1cc(C)n(Cc2ccc(C(=O)Nc3ccccc3C)o2)n1	1.2	0.49	
COC(=O)c1cc(Cl)ccc1NC(=O)c1ccc(Cn2nc(C)cc2C)o1	0.1	0.158	
CCc1cc(Br)ccc1NC(=O)c1ccc(Cn2nc(C)cc2C)o1	2.6	0.631	
O=C(Nc1ccc(Cl)c(Cl)c1)c1ccc(Cn2nc(C(F)(F)F)cc2C(F)(F)F)o1	2.9	3.98	
Cc1cc(C)n(Cc2ccc(C(=O)Nc3cc(F)cc(F)c3)s2)n1	5	1	

SMILES	fold change (FC) [1]	Kp [2]	other results
Cc1cc(C)n(Cc2ccc(C(=O)Nc3ccc(Cl)cc3Cl)o2)n1	4.7	1	
Cc1cc(C)n(Cc2ccc(C(=O)Nc3ccc(F)cc3C)o2)n1	1.9	0.631	
Cc1cc(C)n(Cc2ccc(C(=O)Nc3ccc(F)c(C)c3)s2)n1	2.4	0.794	
Cc1cc(C)n(Cc2ccc(C(=O)Nc3cccnc3)o2)n1	2.9	0.251	
Cc1cc(C)n(Cc2ccc(C(=O)Nc3ccccc3-c3ccccc3)o2)n1	0.3	0.398	
Cc1cc(F)ccc1NC(=O)c1ccc(Cn2nc(C(F)(F)F)cc2C(F)(F)F)o1	2.4	2.51	
Cc1cc(Cl)ccc1NC(=O)c1ccc(Cn2nc(C(F)(F)F)cc2C(F)(F)F)o1	0.7	2.51	
Cc1cc(C)n(Cc2ccc(C(=O)Nc3ccc4cnccc4c3)s2)n1	-0.2	0.316	
O=C(Nc1ccc(Cl)cc1Cl)c1ccc(Cn2nc(C(F)(F)F)cc2C(F)(F)F)o1	0.4	3.98	
Cc1cc(C)n(Cc2ccc(C(=O)Nc3ccc(F)c(Cl)c3)s2)n1	3.5	1.26	
Cc1cc(C)n(Cc2ccc(C(=O)Nc3ccc(Cl)cc3C(=O)NCCCCO)o2)n1	1.7	0.17	
Cc1nc2n(c(=O)c1CCN1CCC(c3noc4cc(F)ccc34)CC1)CCCC2			Activity (Mus musculus [16]): Active
Cc1cc(C)n(Cc2ccc(C(=O)Nc3ccccc3)o2)n1	0.1	0.398	
Cc1cc(Br)ccc1NC(=O)c1ccc(Cn2nc(C(F)(F)F)cc2C(F)(F)F)o1	10.7	2.51	
Cc1cc(C)n(Cc2ccc(C(=O)Nc3ccccc3CCO)o2)n1	0.4	0.126	
Cc1cc(C)n(Cc2ccc(C(=O)Nc3ccc4nc[nH]c4c3)s2)n1	0.1	0.158	
Cc1cc(NC(=O)c2ccc(Cn3nc(C(F)(F)F)cc3C(F)(F)F)o2)ccc1F	5.5	2.51	
Cc1cc(C)n(Cc2ccc(C(=O)Nc3ccc(Cl)cc3C)o2)n1	3.2	0.724	
COc1cc(NC(=O)c2ccc(Cn3nc(C(F)(F)F)cc3C(F)(F)F)o2)cc(OC)c1	2.5	1.26	
